Test results: ChEMBL document CHEMBL4229332, “Novel multi-target azinesulfonamides of cyclic amine derivatives as potential antipsychotics with pro-social and pro-cognitive effects” (Eur J Med Chem, 2018)
pIC50, pKi: −log10 of the molar value.

How the values were obtained:
Cavia porcellus [1] = assay: Cardiotoxicity in guinea pig assessed as effect on QTc interval time at 5 mg/kg, ip measured after 60 mins by ECG analysis (reference value: […] to […] milliseconds); assay type: toxicity, organism-based; conditions: in vivo, 1 h
Cavia porcellus [2] = assay: Cardiotoxicity in guinea pig assessed as effect on PR interval time at 5 mg/kg, ip measured after 70 mins by ECG analysis (reference value: 58.8 to 63.8 milliseconds); assay type: toxicity, organism-based; conditions: in vivo
[3] = Intrinsic clearance in rat liver microsomes at 20 uM at 37 degC measured after 120 mins in presence of NADPH-regenerating system by UPLC-MS analysis; assay type: ADME, microsome; conditions: read-out: CLH
Cavia porcellus [4] = assay: Cardiotoxicity in guinea pig assessed as effect on QRS interval time at 5 mg/kg, ip measured after 30 mins by ECG analysis (reference value: 26.2 to 31.6 milliseconds); assay type: toxicity, organism-based; conditions: in vivo, 0.5 h
Cavia porcellus [5] = assay: Cardiotoxicity in guinea pig assessed as effect on QT interval time at 5 mg/kg, ip measured after 30 mins by ECG analysis (reference value: 127.6 to 131.2 milliseconds); assay type: toxicity, organism-based; conditions: in vivo, 0.5 h
Rattus norvegicus [6] = species on record: Rattus norvegicus; assay: animal or person; conditions: Sprague-Dawley, ip, read-out: MED
Description: Antipsychotic activity in ip dosed Sprague-Dawley rat assessed as suppression of avoidance behavior by avoiding foot shock administered 60 mins prior to test by conditioned avoidance response test

[7] = target: 5-hydroxytryptamine receptor 7 (Homo sapiens, UniProt P34969); assay: biochemical
Description: Displacement of [3H]-5-CT from human 5-HT7R expressed in HEK293 cell membranes after 1 hr at 37 degC by microbeta counting method

[8] = target: 5-hydroxytryptamine receptor 2A (Homo sapiens, UniProt P28223); assay: biochemical; assay type: cell-based, CHO-K1
Cavia porcellus [9] = assay: Cardiotoxicity in guinea pig assessed as effect on QT interval time at 5 mg/kg, ip measured after 50 mins by ECG analysis (reference value: 127.6 to 131.2 milliseconds); assay type: toxicity, organism-based; conditions: in vivo
Cavia porcellus [10] = assay: Cardiotoxicity in guinea pig assessed as effect on PR interval time at 5 mg/kg, ip measured after 20 mins by ECG analysis (reference value: 58.8 to 63.8 milliseconds); assay type: toxicity, organism-based; conditions: in vivo
Cavia porcellus [11] = assay: Cardiotoxicity in guinea pig assessed as effect on QT interval time at 5 mg/kg, ip measured after 70 mins by ECG analysis (reference value: 127.6 to 131.2 milliseconds); assay type: toxicity, organism-based; conditions: in vivo
[12] = Ratio of drug level in brain to plasma in Wistar rat at 3 mg/kg, ip measured after 60 mins by LC-MS/MS analysis; assay type: ADME, organism-based; conditions: read-out: BPR
Cytochrome P450 2C9 = Cytochrome P450 2C9 (Homo sapiens, UniProt P11712); assay: Inhibition of human supersome CYP2C9 using diclofenac as substrate assessed as diclofenac 4'-hydroxylation after 30 mins by HPLC-UV detection; assay type: ADME
Cytochrome P450 1A2 = Cytochrome P450 1A2 (Homo sapiens, UniProt P05177); assay: Inhibition of human supersome CYP1A2 using caffeine as substrate assessed as caffeine 3-N-demethylation after 30 mins by HPLC-UV detection; assay type: ADME
Cavia porcellus [13] = assay: Cardiotoxicity in guinea pig assessed as effect on frequence of heart rate at 5 mg/kg, ip measured after 60 mins by ECG analysis (reference value: 262 to 296 /min); assay type: toxicity, organism-based; conditions: in vivo, 1 h
[14] = target: T1, 5-hydroxytryptamine receptor 1A (Homo sapiens) (UniProt P08908); assay: Partial agonist activity at human 5-HT1AR expressed in CHO-K1 cells assessed as increase in cAMP accumulation at 10^-6 M by chemiluminescence-based assay relative to serotonin; assay type: functional, cell-based
T1 sequence (whole entry): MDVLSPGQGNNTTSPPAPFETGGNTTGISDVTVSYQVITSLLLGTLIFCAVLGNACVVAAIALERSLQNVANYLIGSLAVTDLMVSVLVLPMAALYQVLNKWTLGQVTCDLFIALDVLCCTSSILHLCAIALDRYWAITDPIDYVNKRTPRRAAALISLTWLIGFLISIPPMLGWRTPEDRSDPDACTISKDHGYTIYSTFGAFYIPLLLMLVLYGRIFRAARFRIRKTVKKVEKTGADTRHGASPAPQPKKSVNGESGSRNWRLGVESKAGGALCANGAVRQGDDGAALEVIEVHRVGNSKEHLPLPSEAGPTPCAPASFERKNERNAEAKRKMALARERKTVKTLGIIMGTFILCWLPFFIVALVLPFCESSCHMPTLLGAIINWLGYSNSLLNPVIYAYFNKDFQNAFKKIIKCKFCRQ

Cavia porcellus [15] = assay: Cardiotoxicity in guinea pig assessed as effect on QTc interval time at 5 mg/kg, ip measured after 40 mins by ECG analysis (reference value: […] to […] milliseconds); assay type: toxicity, organism-based; conditions: in vivo
Cavia porcellus [16] = assay: Cardiotoxicity in guinea pig assessed as effect on QRS interval time at 5 mg/kg, ip measured after 20 mins by ECG analysis (reference value: 26.2 to 31.6 milliseconds); assay type: toxicity, organism-based; conditions: in vivo
Cavia porcellus [17] = assay: Cardiotoxicity in guinea pig assessed as effect on frequence of heart rate at 5 mg/kg, ip measured after 50 mins by ECG analysis (reference value: 262 to 296 /min); assay type: toxicity, organism-based; conditions: in vivo
Rattus norvegicus [18] = assay: Effect on failure incidence during conditioned avoidance response test in Sprague-Dawley rat at 3 mg/kg, ip administered 60 mins prior to testing; assay type: ADME, organism-based; conditions: in vivo, 1 h
Cavia porcellus [19] = assay: Cardiotoxicity in guinea pig assessed as effect on PR interval time at 5 mg/kg, ip measured after 80 mins by ECG analysis (reference value: 58.8 to 63.8 milliseconds); assay type: toxicity, organism-based; conditions: in vivo
Cavia porcellus [20] = assay: Cardiotoxicity in guinea pig assessed as effect on RR interval time at 5 mg/kg, ip measured after 20 mins by ECG analysis (reference value: 208.4 to 238.4 milliseconds); assay type: toxicity, organism-based; conditions: in vivo
Cavia porcellus [21] = assay: Cardiotoxicity in guinea pig assessed as effect on QTc interval time at 5 mg/kg, ip measured after 30 mins by ECG analysis (reference value: […] to […] milliseconds); assay type: toxicity, organism-based; conditions: in vivo, 0.5 h
Cavia porcellus [22] = assay: Cardiotoxicity in guinea pig assessed as effect on QRS interval time at 5 mg/kg, ip measured after 80 mins by ECG analysis (reference value: 26.2 to 31.6 milliseconds); assay type: toxicity, organism-based; conditions: in vivo
Cavia porcellus [23] = assay: Cardiotoxicity in guinea pig assessed as effect on frequence of heart rate at 5 mg/kg, ip measured after 80 mins by ECG analysis (reference value: 262 to 296 /min); assay type: toxicity, organism-based; conditions: in vivo
Cavia porcellus [24] = assay: Cardiotoxicity in guinea pig assessed as effect on frequence of heart rate at 5 mg/kg, ip measured after 70 mins by ECG analysis (reference value: 262 to 296 /min); assay type: toxicity, organism-based; conditions: in vivo
[25] = Ratio of drug level in brain to plasma in Wistar rat at 3 mg/kg, ip measured after 15 mins by LC-MS/MS analysis; assay type: ADME, organism-based; conditions: read-out: BPR
[26] = Drug level in Wistar rat plasma at 3 mg/kg, ip measured after 60 mins by LC-MS/MS analysis; assay type: ADME, organism-based
Cytochrome P450 2C19 = Cytochrome P450 2C19 (Homo sapiens, UniProt P33261); assay: Inhibition of human supersome CYP2C19 using perazine as substrate assessed as perazine N-demethylation after 30 mins by HPLC-UV detection; assay type: ADME
Cavia porcellus [27] = assay: Cardiotoxicity in guinea pig assessed as effect on frequence of heart rate at 5 mg/kg, ip measured after 30 mins by ECG analysis (reference value: 262 to 296 /min); assay type: toxicity, organism-based; conditions: in vivo, 0.5 h

Sequence of Cytochrome P450 2C19 (P33261 whole entry): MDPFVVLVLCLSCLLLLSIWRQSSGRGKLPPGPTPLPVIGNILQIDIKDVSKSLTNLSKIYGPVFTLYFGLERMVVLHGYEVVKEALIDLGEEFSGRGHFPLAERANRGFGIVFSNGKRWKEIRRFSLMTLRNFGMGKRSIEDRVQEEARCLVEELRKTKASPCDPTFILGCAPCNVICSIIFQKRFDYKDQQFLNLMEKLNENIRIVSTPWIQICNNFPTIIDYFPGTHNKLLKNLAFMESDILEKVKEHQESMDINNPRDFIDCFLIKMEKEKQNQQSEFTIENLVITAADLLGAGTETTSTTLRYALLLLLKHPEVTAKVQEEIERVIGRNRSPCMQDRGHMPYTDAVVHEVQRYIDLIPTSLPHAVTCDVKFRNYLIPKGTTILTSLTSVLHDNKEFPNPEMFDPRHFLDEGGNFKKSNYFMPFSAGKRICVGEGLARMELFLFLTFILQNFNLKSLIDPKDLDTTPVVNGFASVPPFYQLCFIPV
Sequence of 5-hydroxytryptamine receptor 7 (P34969 whole entry): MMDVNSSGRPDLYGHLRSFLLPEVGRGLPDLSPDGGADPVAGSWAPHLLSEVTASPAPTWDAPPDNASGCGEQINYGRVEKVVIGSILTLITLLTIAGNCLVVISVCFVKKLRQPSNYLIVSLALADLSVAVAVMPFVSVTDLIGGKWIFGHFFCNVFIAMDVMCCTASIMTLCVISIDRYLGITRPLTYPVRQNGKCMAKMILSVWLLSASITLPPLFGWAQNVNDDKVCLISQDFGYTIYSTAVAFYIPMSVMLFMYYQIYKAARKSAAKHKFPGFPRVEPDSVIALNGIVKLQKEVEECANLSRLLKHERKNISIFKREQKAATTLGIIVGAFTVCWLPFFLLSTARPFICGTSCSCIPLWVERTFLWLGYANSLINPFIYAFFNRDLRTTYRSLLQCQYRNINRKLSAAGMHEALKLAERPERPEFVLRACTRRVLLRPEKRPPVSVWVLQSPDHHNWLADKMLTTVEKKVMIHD
Sequence of Cytochrome P450 2C9 (P11712 whole entry): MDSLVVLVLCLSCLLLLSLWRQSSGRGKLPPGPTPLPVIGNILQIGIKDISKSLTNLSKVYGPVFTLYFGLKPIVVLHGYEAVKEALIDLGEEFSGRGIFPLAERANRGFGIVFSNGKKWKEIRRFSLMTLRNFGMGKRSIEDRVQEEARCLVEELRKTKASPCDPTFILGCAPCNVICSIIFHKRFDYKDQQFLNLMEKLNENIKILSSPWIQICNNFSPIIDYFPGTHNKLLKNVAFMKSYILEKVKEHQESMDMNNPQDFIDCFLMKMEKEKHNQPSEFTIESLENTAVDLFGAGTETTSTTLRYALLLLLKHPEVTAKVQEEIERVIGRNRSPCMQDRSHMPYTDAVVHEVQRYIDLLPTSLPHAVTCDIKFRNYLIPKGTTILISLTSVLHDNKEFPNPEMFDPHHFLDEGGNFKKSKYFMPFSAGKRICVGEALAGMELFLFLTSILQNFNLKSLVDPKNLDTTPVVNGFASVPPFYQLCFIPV
Sequence of 5-hydroxytryptamine receptor 2A (P28223 whole entry): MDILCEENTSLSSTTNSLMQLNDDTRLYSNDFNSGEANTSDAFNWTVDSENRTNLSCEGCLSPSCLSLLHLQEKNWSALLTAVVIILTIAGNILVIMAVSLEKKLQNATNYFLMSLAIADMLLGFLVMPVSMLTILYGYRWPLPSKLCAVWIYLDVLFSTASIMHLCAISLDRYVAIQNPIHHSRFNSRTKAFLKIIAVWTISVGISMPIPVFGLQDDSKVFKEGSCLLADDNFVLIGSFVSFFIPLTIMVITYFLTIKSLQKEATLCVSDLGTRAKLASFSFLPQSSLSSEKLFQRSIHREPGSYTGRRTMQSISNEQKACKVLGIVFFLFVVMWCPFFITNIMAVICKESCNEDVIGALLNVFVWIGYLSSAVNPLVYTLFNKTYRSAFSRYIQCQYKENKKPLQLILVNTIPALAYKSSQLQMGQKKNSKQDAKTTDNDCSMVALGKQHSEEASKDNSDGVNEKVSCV
Sequence of Cytochrome P450 1A2 (P05177 whole entry): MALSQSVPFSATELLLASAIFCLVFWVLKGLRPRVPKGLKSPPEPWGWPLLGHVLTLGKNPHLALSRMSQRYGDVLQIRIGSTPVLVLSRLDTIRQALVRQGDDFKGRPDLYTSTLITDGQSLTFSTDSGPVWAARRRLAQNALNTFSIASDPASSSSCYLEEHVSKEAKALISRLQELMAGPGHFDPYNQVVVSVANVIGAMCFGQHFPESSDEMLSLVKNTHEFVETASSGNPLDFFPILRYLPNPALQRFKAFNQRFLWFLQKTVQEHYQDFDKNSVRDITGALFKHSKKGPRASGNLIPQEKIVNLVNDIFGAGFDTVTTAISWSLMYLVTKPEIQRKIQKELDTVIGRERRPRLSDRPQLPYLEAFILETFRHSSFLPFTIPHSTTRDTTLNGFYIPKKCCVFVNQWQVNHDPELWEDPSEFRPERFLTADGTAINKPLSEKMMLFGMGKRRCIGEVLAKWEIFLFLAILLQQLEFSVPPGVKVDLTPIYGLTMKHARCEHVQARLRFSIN

SMILES | Time (Cavia porcellus [1]) | Time (Cavia porcellus [2]) | microsomal CLint at 20 µM [3] | Time (Cavia porcellus [4]) | Time (Cavia porcellus [5]) | minimal effective dose (Rattus norvegicus [6]) | pKi [7] | pKi [8] | Time (Cavia porcellus [9]) | Time (Cavia porcellus [10]) | Time (Cavia porcellus [11]) | Kp at 1 h [12] | pIC50 (Cytochrome P450 2C9) | pIC50 (Cytochrome P450 1A2) | Activity (Cavia porcellus [13]) | Activity [14] | Time (Cavia porcellus [15]) | Time (Cavia porcellus [16]) | Activity (Cavia porcellus [17]) | Activity (Rattus norvegicus [18]) | other results
O=S(=O)(c1cncc2ccccc12)N1CCC[C@H]1CCN1CCN(c2nsc3ccccc23)CC1 | 275.8 ms | 60.8 ms | 1.73 µL/min/mg | 26.8 ms | 128.8 ms | 3 mg/kg | 8.05 | 7.89 | 121.6 ms | 59.6 ms | 125.4 ms | 0.96 | 4.00 | < 4.00 | 288 min⁻¹ | 5.3% | 274.2 ms | 26 ms | 288 min⁻¹ | Non-Toxic | Time (Cavia porcellus [19]): 61.8 ms; Time (Cavia porcellus [20]): 206 ms; Time (Cavia porcellus [21]): 280.6 ms; Time (Cavia porcellus [22]): 26 ms; Activity (Cavia porcellus [23]): 284 min⁻¹; Activity (Cavia porcellus [24]): 287 min⁻¹; Kp at 0.25 h [25]: 0.59; concentration at 1 h [26]: 50.2 nM; pIC50 (Cytochrome P450 2C19): 4.30; Activity (Cavia porcellus [27]): 287 min⁻¹
O=S(=O)(c1cncc2ccccc12)N1CCC[C@H]1CCN1CCN(c2cccc3sccc23)CC1 | 266.6 ms | 64.2 ms | 2.81 µL/min/mg | 32.4 ms | 126.8 ms | 3 mg/kg | 7.72 | 8.05 | 124.8 ms | 63.8 ms | 124 ms | 2.13 | < 4.00 | < 4.00 | 276 min⁻¹ | 40.6% | 263.4 ms | 31.6 ms | 270 min⁻¹ | Non-Toxic | Time (Cavia porcellus [19]): 63.8 ms; Time (Cavia porcellus [20]): 231.2 ms; Time (Cavia porcellus [21]): 262.8 ms; Time (Cavia porcellus [22]): 32 ms; Activity (Cavia porcellus [23]): 286 min⁻¹; Activity (Cavia porcellus [24]): 271 min⁻¹; Kp at 0.25 h [25]: 1.69; concentration at 1 h [26]: 45 nM; pIC50 (Cytochrome P450 2C19): < 4.00; Activity (Cavia porcellus [27]): 264 min⁻¹
